These results are taken from publication PMC9060753, “pDobz/pDobb protected diaminodiacid as a novel building block for peptide disulfide-bond mimic synthesis” (RSC Advances, 2019).

The conditions of data set [1]: pH 7.4.
Another data set deals with α-chymotrypsin (Bos taurus, UniProt P00766). To be noted: pH 7.4.

Bridge positions count the residues as written; N and C are the ends. Square brackets hold non-standard residues; d marks the D form. Triazole bridges read from a SMILES are 1,4-linked. Peptide text beside a SMILES is read from it. Dap(N3) = [N-]=[N+]=NC[C@H](N)C(=O)O; Pra = C#CC[C@H](N)C(=O)O

For the molecule `NCCCC[C@@H]1NC(=O)[C@@H](Cc2c[nH]c3ccccc23)NC(=O)[C@@H]2CCCN2C(=O)[C@@H](NC(=O)[C@H](CC(=O)O)NC(=O)CN)Cn2cc(nn2)C[C@@H](C(N)=O)NC(=O)[C@H](Cc2c[nH]c3ccccc23)NC(=O)[C@@H]2CCCN2C1=O` [Compound 14, [Ala1(&^1),Ala7(&^2)]contryphan-Vn[1,9][(&^1-1,4-[1,2,3]-triazolyl-&^2)]] (H-GD[Dap(N3)]P[dW]KPW[Pra]-NH2; triazole 3-9), the “Reduction stability in aqueous DTT solution (percent residual peptide)” value in data set [1] is recorded as “remained intact”. In addition, on α-chymotrypsin, the “Difference of protease stability versus native model peptide contryphan-Vn” value is reported as “No significant differences” and the “Protease stability under α-chymotrypsin treatment (percent residual peptide)” value is recorded as “degraded completely”.

`NCCCC[C@@H]1NC(=O)[C@@H](Cc2c[nH]c3ccccc23)NC(=O)[C@@H]2CCCN2C(=O)[C@@H](NC(=O)[C@H](CC(=O)O)NC(=O)CN)CSSC[C@@H](C(N)=O)NC(=O)[C@H](Cc2c[nH]c3ccccc23)NC(=O)[C@@H]2CCCN2C1=O` [contryphan-Vn, Contryphan-Vn[1,9], reference compound] (H-GDCP[dW]KPWC-NH2; disulfide 3-9): the “Reduction stability in aqueous DTT solution (percent residual peptide)” value in data set [1] was “completely reduced”. On α-chymotrypsin, the “Protease stability under α-chymotrypsin treatment (percent residual peptide)” value is reported as “degraded completely”.
